Data as given in patent US20200275661A1 (published 2020).

melting point	SMILES
155 to 157 °C	c1ccc(C(Oc2ccc3nccnc3c2)c2nnco2)cc1 (stereo not shown)
111 to 113 °C	Cn1nnnc1C(Oc1ccc2ncccc2c1)c1ccccc1 (stereo not shown)
136 to 137 °C	CO/N=C/c1cnc2ccc(O[C@@H](c3ccc(F)cn3)c3nnco3)cc2c1
158 to 159 °C	CC(C)O/N=C/c1cc(OC(c2ccc(F)cn2)c2nnco2)cc2cccnc12 (stereo not shown)
71 to 73 °C	c1ccc(C(Oc2ccc3ncccc3c2)c2ccccn2)cc1 (stereo not shown)
154 to 158 °C	Fc1ccc(C(Oc2cnc3ncccc3c2)c2nnco2)nc1 (stereo not shown)
176 to 177 °C	[O-][n+]1cccc2cc(OC(c3ccc(F)cn3)c3nnco3)ccc21 (stereo not shown)
92 to 94 °C	Fc1ccc(C(Oc2ccc3ncccc3c2)c2nncs2)nc1 (stereo not shown)
136 to 137 °C	Brc1cnc2ccc(OC(c3ccccc3)c3ncco3)cc2c1 (stereo not shown)
172 to 173 °C	CO/N=C/c1cnc2ccc(OC(c3ccc(F)cn3)c3nnco3)c(Br)c2c1 (stereo not shown)
148 to 152 °C	CO/N=C/c1cnc2ccc(OC(c3ccc(F)cn3)c3nnco3)cc2c1 (stereo not shown)
115 to 119 °C	Fc1ccc(C(Oc2ccc3ncccc3c2)c2ncon2)nc1 (stereo not shown)
126 to 128 °C	c1ccc(C(Oc2ccc3ncccc3c2)c2ccon2)cc1 (stereo not shown)
179 to 181 °C	CSc1cnc2ccc(OC(c3cc(Cl)c(Cl)cn3)c3nnco3)cc2c1 (stereo not shown)
104 to 110 °C	Fc1ccc(C(Oc2ccc3ncccc3c2)c2ncco2)nc1 (stereo not shown)
136 to 138 °C	CO/N=C/c1cnc2ccc(O[C@H](c3ccc(F)cn3)c3nnco3)cc2c1
182 to 184 °C	CCO/N=C/c1cc(OC(c2ccc(F)cn2)c2nnco2)cc2cccnc12 (stereo not shown)
224 to 226 °C	[O-][n+]1cc(F)ccc1C(Oc1ccc2c(ccc[n+]2[O-])c1)c1nnco1 (stereo not shown)
100 to 104 °C	Fc1ccc(C(Oc2ccc3ncccc3c2)c2ncno2)nc1 (stereo not shown)
118 to 120 °C	Fc1ccc(C(Oc2ccc3ncc(/C=N/OCC(F)(F)F)cc3c2)c2nnco2)nc1 (stereo not shown)
130 to 134 °C	CC(C)(O)c1coc(C(Oc2ccc3ncccc3c2)c2ccccc2)n1 (stereo not shown)
198 to 200 °C	Fc1ccc(C(Oc2cccc3ncccc23)c2nnco2)nc1 (stereo not shown)
110 to 113 °C	c1ccc(C(Oc2ccc3ncccc3c2)c2cnco2)cc1 (stereo not shown)
130 to 133 °C	CCO/N=C/c1cnc2ccc(OC(c3ccc(F)cn3)c3nnco3)cc2c1 (stereo not shown)
164 to 166 °C	CO/N=C/c1cc(OC(c2ccc(F)cn2)c2nnco2)cc2cccnc12 (stereo not shown)
166 to 168 °C	CO/N=C/c1ccnc(C(Oc2cc(Cl)c3ncccc3c2)c2nnco2)c1 (stereo not shown)

melting point	SMILES
136 to 139 °C	c1ccc(C(Oc2cc3cccnc3cn2)c2nnco2)cc1 (stereo not shown)
165 to 167 °C	CO/N=C/c1ccnc(C(Oc2cc(Br)c3ncccc3c2)c2nnco2)c1 (stereo not shown)
128 to 130 °C	C#CCO/N=C/c1ccnc(C(Oc2cc(F)c3ncccc3c2)c2nnco2)c1 (stereo not shown)
161 to 163 °C	c1ccc(C(Nc2ccc3ncccc3c2)c2nnco2)cc1 (stereo not shown)
126 to 129 °C	CC(C)O/N=C/c1ccnc(C(Oc2cc(F)c3ncccc3c2)c2nnco2)c1 (stereo not shown)
60 to 62 °C	FC(F)Oc1ccc(C(Oc2ccc3ncccc3c2)c2nncs2)nc1 (stereo not shown)
108 to 110 °C	Cc1cc(C(Oc2ccc3ncccc3c2)c2ccccc2)no1 (stereo not shown)
136 to 139 °C	Cc1cnc2ccc(OC(c3ccc(Br)cn3)c3ncco3)cc2c1 (stereo not shown)
176 to 182 °C	Fc1ccc(C(Oc2cc(Br)c3ncccc3c2)c2nnco2)nc1 (stereo not shown)
168 to 171 °C	CCO/N=C/c1ccnc(C(Oc2cc(F)c3ncccc3c2)c2nnco2)c1 (stereo not shown)
168 to 172 °C	Cc1cnc2ccc(OC(c3ccc(C#N)cn3)c3ncco3)cc2c1 (stereo not shown)
112 to 115 °C	CC(C)O/N=C/c1cnc2ccc(OC(c3ccc(F)cn3)c3nnco3)cc2c1 (stereo not shown)
114 to 116 °C	Cc1nnc(C(Oc2ccc3ncccc3c2)c2ccccc2)o1 (stereo not shown)
147 to 150 °C	Fc1ccc(C(Oc2cc(/C=C/C(F)(F)F)c3ncccc3c2)c2nnco2)nc1 (stereo not shown)
53 to 55 °C	Brc1c(OC(c2ccccc2)c2ncon2)ccc2ncccc12 (stereo not shown)
149 to 151 °C	c1ccc(C(Oc2ccc3ncccc3c2)c2nncs2)cc1 (stereo not shown)
174 to 177 °C	CO/N=C/c1ccnc(C(Oc2cc(F)c3ncccc3c2)c2nnco2)c1 (stereo not shown)
79 to 81 °C	Cc1noc(C(Oc2ccc3ncccc3c2)c2ccc(F)cn2)n1 (stereo not shown)
215 °C (dec.)	c1ccc(C(Oc2ccc3ncccc3c2)c2ccco2)cc1 (stereo not shown)
126 to 130 °C	c1ccc(C(Sc2ccc3ncccc3c2)c2nnco2)cc1 (stereo not shown)
103 to 107 °C	CCOC(=O)c1coc(C(Oc2ccc3ncccc3c2)c2ccccc2)n1 (stereo not shown)
151 to 152 °C	Clc1ccc(C(Nc2ccc3ncccc3c2)c2nnco2)cc1 (stereo not shown)
138 to 140 °C	c1ccc(C(Oc2ccc3ncccc3c2)c2ncon2)cc1 (stereo not shown)
122 to 124 °C	c1ccc(C(Oc2ccc3ncccc3c2)c2ncco2)cc1 (stereo not shown)
108 to 110 °C	c1ccc(C(Oc2cnc3ccccc3c2)c2nnco2)cc1 (stereo not shown)
214 to 217 °C	Clc1ccc(C(Nc2ccc3ncc(Br)cc3c2)c2nnco2)nc1 (stereo not shown)
